As a reminder, the pIC50 is the IC50 on a negative log10 scale, so that one unit is a factor of ten.

pIC50: −log10 of the molar value. Where two headings read alike, the source gives them in different places.

The target of test [1] is human IRAK4 (Homo sapiens (Human), UniProt Q9NWZ3). Kind of test: IRAK4 kinase assay (IRAK4 TR-FRET assay). Type of test: biochemical. As to the method:
The IRAK4-inhibitory activity of the inventive substances was measured in the IRAK4 TR-FRET assay (TR-FRET=Time Resolved Fluorescence Resonance Energy Transfer) described hereinafter.
Recombinant fusion protein from N-terminal GST (glutathione S-transferase) and human IRAK4, expressed in baculovirus-infected insect cells (Hi5, BTI-TN-5B1-4, cell line purchased from Invitrogen, catalogue No. B855-02) and purified via affinity chromatography, was used as enzyme. The substrate used for the kinase reaction was the biotinylated peptide biotin-Ahx-[…] (C-terminus in amide form) which can be purchased, for example, from Biosyntan GmbH (Berlin-Buch).
50 nl of the respective solution were pipetted into a black low-volume 384-well microtitre plate (Greiner Bio-One, Frickenhausen, Germany), 2 μl of a solution of IRAK4 in assay buffer [50 mM HEPES pH 7.5, 5 mM MgCl2, 1.0 mM dithiothreitol, 30 μM activated sodium orthovanadate, 0.1% (w/v) of bovine gamma-globulin (BGG) 0.04% (v/v) nonidet-P40 (Sigma)] were added and the mixture was incubated for 15 min to allow prebinding of the substances to the enzyme prior to the kinase reaction. […] The concentration of the IRAK4 was adjusted to the respective activity of the enzyme and set such that the assay was carried out in the linear range. Typical concentrations were in the order of about 0.2 nM.
The resulting mixture was incubated at 22° C. for 1 h to allow formation of a complex of the biotinylated phosphorylated substrate and the detection reagents. The amount of the phosphorylated substrate was then evaluated by measuring the resonance energy transfer from europium chelate-labelled anti-mouse-IgG antibody to streptavidin-XL665. […] The IC50 values were calculated by a 4-parameter fit.
In general terms: In TR-FRET formats the signal depends on donor and acceptor labels being close together.

In test [2] the test system is THP-1 cells. In words: TNF-α secretion in THP-1 cells (LPS-triggered, HTRF). It counts as cell-based. Particulars: Homo sapiens, read-out: IC50 with respect to the secretion of TNF-α in THP-1 cells. As to the method: This test is suited to test substances for their ability to inhibit secretion of TNF-α (tumour necrosis factor alpha) in THP-1 cells (human monocytic acute leukaemia cell line). TNF-α is a cytokine involved in inflammatory processes. In this test, TNF-α secretion is triggered by incubation with bacterial lipopolysaccharide (LPS).
The cells were incubated at room temperature for 15 min. 2-2.5 μl of 0.1 μg/ml LPS (Sigma, Escherichia coli 055:B5, Cat. No. L5418) dissolved in cell culture medium (final concentration 0.05 μg/ml) were then dispensed into each well. As neutral control, cells were treated with 0.05 μg/ml LPS and 1% DMSO and, as inhibitor control, with 1% DMSO only.
The amount of TNF-α was determined using the TNF-alpha HTRF Detection Kit (Cisbio, Cat. No. 62TNFPEB/C). To this end, 2 μl of the detection solution in each case, consisting of anti-TNF-α-XL665 conjugate and anti-TNF-α-cryptate conjugate dissolved in the reconstitution buffer in accordance with the manufacturer's instructions, were added for the HTRF (Homogeneous Time-Resolved Fluorescence) test. After the addition, the mixture was incubated either at room temperature for 3 h or at 4° C. overnight.
The activity of the substances is expressed as the ratio between neutral and inhibitor control in percent. The IC50 values were calculated using a 4-parameter fit.

Where [3] appears, read: TR-FRET, 1 mM ATP, read-out: IC50 in the IRAK4 kinase assay.

human IRAK4, sequence (Q9NWZ3 whole entry): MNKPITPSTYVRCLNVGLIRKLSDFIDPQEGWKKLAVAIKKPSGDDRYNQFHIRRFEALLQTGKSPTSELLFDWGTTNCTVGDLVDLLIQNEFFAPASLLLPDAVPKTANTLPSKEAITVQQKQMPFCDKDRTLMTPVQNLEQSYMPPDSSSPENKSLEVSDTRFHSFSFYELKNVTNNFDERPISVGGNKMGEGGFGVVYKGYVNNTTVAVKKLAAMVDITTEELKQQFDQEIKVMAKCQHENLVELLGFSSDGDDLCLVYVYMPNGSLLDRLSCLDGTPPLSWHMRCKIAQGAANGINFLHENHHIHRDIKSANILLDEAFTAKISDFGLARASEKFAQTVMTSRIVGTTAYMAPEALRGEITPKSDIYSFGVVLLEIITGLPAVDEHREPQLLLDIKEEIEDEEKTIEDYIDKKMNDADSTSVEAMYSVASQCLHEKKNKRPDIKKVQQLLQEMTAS

With `COCCn1cc2cc(NC(=O)c3cccc(C(F)(F)F)n3)c(C(C)(C)O)cc2n1` [Example 1, N-[6-(2-Hydroxypropan-2-yl)-2-(2-methoxyethyl)-2H-indazol-5-yl]-6-(trifluoromethyl)pyridine-2-carboxamide], the pIC50 is 7.51 in test [1] (setting [3]) and 6.00 in test [2] (THP-1, 0.05 μg/ml LPS, 17 h).

Consider `COCCn1cc2cc(NC(=O)c3cccc(C(F)(F)F)n3)c(CO)cc2n1` [Example 2, N-[6-(Hydroxymethyl)-2-(2-methoxyethyl)-2H-indazol-5-yl]-6-(trifluoromethyl)pyridine-2-carboxamide], for which the pIC50 in test [2] (THP-1, 0.05 μg/ml LPS, 17 h) is 4.82.

For the compound `COCCCn1cc2cc(NC(=O)c3cccc(C(F)(F)F)n3)c(CO)cc2n1` [Example 4, N-[6-(Hydroxymethyl)-2-(3-methoxypropyl)-2H-indazol-5-yl]-6-(trifluoromethyl)pyridine-2-carboxamide], the pIC50 was 7.28 in test [1] (setting [3]) and 5.25 in test [2] (THP-1, 0.05 μg/ml LPS, 17 h).

With `CC(C)(O)c1cc2nn(CCO)cc2cc1NC(=O)c1cccc(C(F)(F)F)n1` [Example 5, N-[2-(2-Hydroxyethyl)-6-(2-hydroxypropan-2-yl)-2H-indazol-5-yl]-6-(trifluoromethyl)pyridine-2-carboxamide], the pIC50 in test [1] (setting [3]) is 6.58; in test [2] (THP-1, 0.05 μg/ml LPS, 17 h), 5.27.

`CC(C)(O)c1cc2nn(CCCO)cc2cc1NC(=O)c1cccc(C(F)(F)F)n1` [Example 6, N-[6-(2-Hydroxypropan-2-yl)-2-(3-hydroxypropyl)-2H-indazol-5-yl]-6-(trifluoromethyl)pyridine-2-carboxamide]: the pIC50 in test [1] (setting [3]) was 7.45; in test [2] (THP-1, 0.05 μg/ml LPS, 17 h), 6.05.

Consider `O=C(Nc1cc2cn(CCO)nc2cc1CO)c1cccc(C(F)(F)F)n1` [Example 7, N-[2-(2-Hydroxyethyl)-6-(hydroxymethyl)-2H-indazol-5-yl]-6-(trifluoromethyl)pyridine-2-carboxamide], for which the pIC50 in test [1] (setting [3]) is 6.06; in test [2] (THP-1, 0.05 μg/ml LPS, 17 h), 4.79.

`CC(C)(O)c1cc2nn(CC3COC3)cc2cc1NC(=O)c1cccc(C(F)(F)F)n1` [Example 8, N-[6-(2-Hydroxypropan-2-yl)-2-(oxetan-3-ylmethyl)-2H-indazol-5-yl]-6-(trifluoromethyl)pyridine-2-carboxamide]: the pIC50 in test [1] (setting [3]) is 7.82; in test [2] (THP-1, 0.05 μg/ml LPS, 17 h), 6.00.

Regarding `O=C(Nc1cc2cn(CC3COC3)nc2cc1CO)c1cccc(C(F)(F)F)n1` [Example 9, N-[6-(Hydroxymethyl)-2-(oxetan-3-ylmethyl)-2H-indazol-5-yl]-6-(trifluoromethyl)pyridine-2-carboxamide], the pIC50 in test [1] (setting [3]) is 6.98; in test [2] (THP-1, 0.05 μg/ml LPS, 17 h), 5.19.

As to `CC(C)(O)c1cc2nn(CCCS(C)(=O)=O)cc2cc1NC(=O)c1cccc(C(F)(F)F)n1` [Example 10, N-{6-(2-Hydroxypropan-2-yl)-2-[3-(methylsulphonyl)propyl]-2H-indazol-5-yl}-6-(trifluoromethyl)pyridine-2-carboxamide], the pIC50 is 7.73 in test [1] (setting [3]) and 6.00 in test [2] (THP-1, 0.05 μg/ml LPS, 17 h).

Take `CC(C)(O)CCn1cc2cc(NC(=O)c3cccc(C(F)F)n3)c(C(C)(C)O)cc2n1` [Example 13, 6-(Difluoromethyl)-N-[2-(3-hydroxy-3-methylbutyl)-6-(2-hydroxypropan-2-yl)-2H-indazol-5-yl]pyridine-2-carboxamide]: the negative logarithm of the IC50 (pIC50) is 8.89 in test [1] (setting [3]) and 7.00 in test [2] (THP-1, 17 h).

For the compound `CC(C)(O)c1cc2nn(CCS(C)(=O)=O)cc2cc1NC(=O)c1cccc(C(F)F)n1` [Example 14, 6-(Difluoromethyl)-N-{6-(2-hydroxypropan-2-yl)-2-[2-(methylsulphonyl)ethyl]-2H-indazol-5-yl}pyridine-2-carboxamide], the pIC50 is 7.97 in test [1] (setting [3]) and 6.70 in test [2] (THP-1, 0.05 μg/ml LPS, 17 h).

Consider `CC(C)(O)c1cc2nn(CCCO)cc2cc1NC(=O)c1cccc(C(F)F)n1` [Example 15, 6-(Difluoromethyl)-N-[6-(2-hydroxypropan-2-yl)-2-(3-hydroxypropyl)-2H-indazol-5-yl]pyridine-2-carboxamide], for which the pIC50 in test [1] (setting [3]) was 7.91; in test [2] (THP-1, 0.05 μg/ml LPS, 17 h), 6.70.

Turning to `CC(C)(O)c1cc2nn(CCCC(F)(F)F)cc2cc1NC(=O)c1cccc(C(F)(F)F)n1` [Example 16, N-[6-(2-Hydroxypropan-2-yl)-2-(4,4,4-trifluorobutyl)-2H-indazol-5-yl]-6-(trifluoromethyl)pyridine-2-carboxamide], the pIC50 is 7.67 in test [1] (setting [3]) and 6.70 in test [2] (THP-1, 0.05 μg/ml LPS, 17 h).

For the compound `CC(C)(O)c1cc2nn(CCCOC(F)(F)F)cc2cc1NC(=O)c1cccc(C(F)(F)F)n1` [Example 17, N-{6-(2-Hydroxypropan-2-yl)-2-[3-(trifluoromethoxy)propyl]-2H-indazol-5-yl}-6-(trifluoromethyl)pyridine-2-carboxamide], the pIC50 in test [1] (setting [3]) is 7.44; in test [2] (THP-1, 0.05 μg/ml LPS, 17 h), 6.30.

As for `CC(C)(O)c1cc2nn(CCCOCC(F)(F)F)cc2cc1NC(=O)c1cccc(C(F)(F)F)n1` [Example 18, N-{6-(2-Hydroxypropan-2-yl)-2-[3-(2,2,2-trifluoroethoxy)propyl]-2H-indazol-5-yl}-6-(trifluoromethyl)pyridine-2-carboxamide], the pIC50 was 7.32 in test [1] (setting [3]) and 6.52 in test [2] (THP-1, 0.05 μg/ml LPS, 17 h).

Take `Cc1nc(C(=O)Nc2cc3cn(CCC(C)(C)O)nc3cc2C(C)(C)O)ccc1F` [Example 19, 5-Fluoro-N-[2-(3-hydroxy-3-methylbutyl)-6-(2-hydroxypropan-2-yl)-2H-indazol-5-yl]-6-methylpyridine-2-carboxamide]: the pIC50 is 8.05 in test [1] (setting [3]) and 7.00 in test [2] (THP-1, 17 h).

Regarding `Cc1cccc(C(=O)Nc2cc3cn(CCC(C)(C)O)nc3cc2C(C)(C)O)n1` [Example 20, N-[2-(3-Hydroxy-3-methylbutyl)-6-(2-hydroxypropan-2-yl)-2H-indazol-5-yl]-6-methylpyridine-2-carboxamide], the pIC50 in test [1] (setting [3]) was 7.88; in test [2] (THP-1, 0.05 μg/ml LPS, 17 h) it was 6.70.

As to `CC(C)(O)c1cccc(C(=O)Nc2cc3cn(CCCC(F)(F)F)nc3cc2C(C)(C)O)n1` [Example 21, 6-(2-Hydroxypropan-2-yl)-N-[6-(2-hydroxypropan-2-yl)-2-(4,4,4-trifluorobutyl)-2H-indazol-5-yl]pyridine-2-carboxamide], the pIC50 in test [1] (setting [3]) was 6.93; in test [2] (THP-1, 0.05 μg/ml LPS, 17 h), 5.74.

In the case of `CC(C)(O)c1cc2nn(CCC3(O)CC3)cc2cc1NC(=O)c1cccc(C(F)(F)F)n1` [Example 22, N-{2-[2-(1-Hydroxycyclopropyl)ethyl]-6-(2-hydroxypropan-2-yl)-2H-indazol-5-yl}-6-(trifluoromethyl)pyridine-2-carboxamide], in test [1] (setting [3]), the pIC50 was 8.43.

Take `COCCn1cc2cc(NC(=O)c3cccc(C(F)(F)F)n3)c(C(=O)OC)cc2n1` [Intermediate 4-2, Methyl 2-(2-methoxyethyl)-5-({[6-(trifluoromethyl)pyridin-2-yl]carbonyl}amino)-2H-indazole-6-carboxylate]: the pIC50 in test [1] is 7.66.

Turning to `COCCCn1cc2cc(NC(=O)c3cccc(C(F)(F)F)n3)c(C(=O)OC)cc2n1` [Intermediate 4-3, Methyl 2-(3-methoxypropyl)-5-({[6-(trifluoromethyl)pyridin-2-yl]carbonyl}amino)-2H-indazole-6-carboxylate], the pIC50 in test [1] was 7.89.

The compound `COC(=O)c1cc2nn(CCC(C)(C)O)cc2cc1NC(=O)c1cccc(C(F)(F)F)n1` [Intermediate 4-4, Methyl 2-(3-hydroxy-3-methylbutyl)-5-({[6-(trifluoromethyl)pyridin-2-yl]carbonyl}amino)-2H-indazole-6-carboxylate] had a pIC50 in test [1] of 8.21.

The values above are taken from patent US10308634B2, “Substituted indazoles, methods for the production thereof, pharmaceutical preparations that contain said new substituted indazoles, and use of said new substituted indazoles to produce drugs” (BAYER PHARMA AKTIENGESELLSCHAFT, priority 2014, dated 2019).
